Results as given in ChEMBL document CHEMBL1145662, “Catharanthus alkaloids, XXXVIII. Confirming structural evidence and antineoplastic activity of the bisindole alkaloids leurosine-N'b-oxide (pleurosine), roseadine and vindolicine from Catharanthus roseus” (J Nat Prod, 1983).

Columns and labels:
P388 [1] = experiment: Antitumor activity against mouse P388 cells xenografted in CD2F1 mouse at 1 mg/kg relative to control; assay type: functional
B16 [2] = experiment: Antitumor activity against mouse B16 cells xenografted in B6C3F1 mouse at 0.5 mg/kg relative to control; assay type: functional
P388 [3] = experiment: Antitumor activity against mouse P388 cells xenografted in CD2F1 mouse at 2 mg/kg relative to control; assay type: functional
B16 [4] = experiment: Antitumor activity against mouse B16 cells xenografted in B6C3F1 mouse at 5 mg/kg for 1 to 9 days relative to control; assay type: functional
P388 [5] = experiment: Antitumor activity against mouse P388 cells xenografted in CD2F1 mouse at 16 mg/kg after 1 day relative to control; assay type: functional
MC-38 [6] = experiment: Antitumor activity against mouse Colon 38 cells xenografted in Swiss mouse at 10 mg/kg for 1 to 2 days relative to control; assay type: functional
CX-1 [7] = experiment: Antitumor activity against human CX-1 cells xenografted in Swiss nu/nu athymic mouse at 40 mg/kg on 4th,8th,12th and 16th day relative to control; assay type: functional
L1210 [8] = experiment: Antitumor activity against mouse L1210 cells xenografted in CD2F1 mouse at 5 mg/kg for 1 to 9 days relative to control; assay type: functional
P388 [9] = experiment: Antitumor activity against mouse P388 cells xenografted in CD2F1 mouse at 6.25 mg/kg for 1 to 9 days relative to control; assay type: functional
P388 [10] = experiment: Antitumor activity against mouse P388 cells xenografted in CD2F1 mouse at 6.25 mg/kg on 3rd, 6th and 9th day relative to control; assay type: functional
CX-1 [11] = experiment: Antitumor activity against human CX-1 cells xenografted in Swiss nu/nu athymic mouse at 80 mg/kg on 4th,8th,12th and 16th day relative to control; assay type: functional
MC-38 [12] = experiment: Antitumor activity against mouse Colon 38 cells xenografted in Swiss mouse at 5 mg/kg for 1 to 2 days relative to control; assay type: functional
P388 [13] = experiment: Antitumor activity against mouse P388 cells xenografted in CD2F1 mouse at 25 mg/kg for 1 to 9 days relative to control; assay type: functional
CX-1 [14] = experiment: Antitumor activity against human CX-1 cells xenografted in Swiss nu/nu athymic mouse at 160 mg/kg on 4th,8th,12th and 16th day relative to control; assay type: functional
P388 [15] = experiment: Antitumor activity against mouse P388 cells xenografted in CD2F1 mouse at 12.5 mg/kg for 1 to 9 days relative to control; assay type: functional
B16 [16] = experiment: Antitumor activity against mouse B16 cells xenografted in B6C3F1 mouse at 2.5 mg/kg for 1 to 9 days relative to control; assay type: functional
P388 [17] = experiment: Antitumor activity against mouse P388 cells xenografted in CD2F1 mouse at 32 mg/kg after 1 day relative to control; assay type: functional
L1210 [18] = experiment: Antitumor activity against mouse L1210 cells xenografted in CD2F1 mouse at 20 mg/kg for 1 to 9 days relative to control; assay type: functional
L1210 [19] = experiment: Antitumor activity against mouse L1210 cells xenografted in CD2F1 mouse at 10 mg/kg for 1 to 9 days relative to control; assay type: functional
P388 [20] = experiment: Antitumor activity against mouse P388 cells xenografted in CD2F1 mouse at 8 mg/kg after 1 day relative to control; assay type: functional
CX-1 [21] = experiment: Antitumor activity against human CX-1 cells xenografted in Swiss nu/nu athymic mouse at 20 mg/kg on 4th,8th,12th and 16th day relative to control; assay type: functional
MC-38 [22] = experiment: Antitumor activity against mouse Colon 38 cells xenografted in Swiss mouse at 20 mg/kg for 1 to 2 days relative to control; assay type: functional
P388 [23] = experiment: Antitumor activity against mouse P388 cells xenografted in CD2F1 mouse at 12.5 mg/kg on 3rd, 6th and 9th day relative to control; assay type: functional
B16 [24] = experiment: Antitumor activity against mouse B16 cells xenografted in B6C3F1 mouse at 10 mg/kg for 1 to 9 days relative to control; assay type: functional
Mus musculus = experiment: Toxicity in mouse P388 cells xenografted in CD2F1 mouse at 20 mg/kg; assay type: organism-based; design: dose 20 mg/kg; settings: in vivo
P388 [25] = experiment: Antitumor activity against mouse P388 cells xenografted in CD2F1 mouse at 25 mg/kg on 3rd, 6th and 9th day relative to control; assay type: functional
P388 [26] = experiment: Antitumor activity against mouse P388 cells xenografted in CD2F1 mouse at 4 mg/kg after 1 day relative to control; assay type: functional

How did the T/C (P388 [1]) turn out when `CC[C@@H]1C[C@H]2CN(CCc3c([nH]c4ccccc34)[C@@](C(=O)OC)(c3cc4c(cc3OC)N(C)[C@H]3[C@@](O)(C(=O)OC)[C@H](OC(C)=O)[C@]5(CC)C=CCN6CC[C@]43[C@@H]65)C2)C1` [ROSEAMINE] was run?
Its T/C is 161%.

`CC[C@]1(O)C[C@@H]2CN(CCc3c([nH]c4ccccc34)[C@@](C(=O)OC)(c3cc4c(cc3OC)N(C)[C@H]3[C@@](O)(C(=O)OC)[C@H](OC(C)=O)[C@]5(CC)C=CCN6CC[C@]43[C@@H]65)C2)C1` [VINBLASTINE] was tested. Which T/C (B16 [2]) did it give?
Its T/C is 309%.

Which T/C (P388 [3]) does the source give for `CC[C@]1(O)CN2CCc3c([nH]c4ccccc34)[C@@H]1[C@@H](/C=C(\C(=O)OC)c1cc3c(cc1OC)N(C)C1[C@]34CCN3CC=C[C@](CC)(C34)[C@@H](OC(C)=O)[C@]1(O)C(=O)OC)C2` (some centres not stated) [ROSEADINE] here?
Its T/C is 176%.

With `CC[C@@]12C[N+]3([O-])CCc4c([nH]c5ccccc45)[C@@](C(=O)OC)(c4cc5c(cc4OC)N(C)[C@H]4[C@@](O)(C(=O)OC)[C@H](OC(C)=O)[C@]6(CC)C=CCN7CC[C@]54[C@@H]76)C[C@@H](C[C@@H]1O2)C3` as the compound, how does the T/C (B16 [4]) read?
Its T/C is 261%.

And the T/C (P388 [5])?
The T/C was 193%.

And the T/C (MC-38 [6])?
The T/C was 108%.

What about the T/C (CX-1 [7]) of the same compound?
Its T/C is 60%.

And the T/C (L1210 [8])?
Its T/C is 101%.

And the T/C (P388 [9])?
The T/C was 154%.

And the T/C (P388 [10])?
The T/C was 168%.

And the T/C (CX-1 [11])?
Its T/C is 85%.

And the T/C (MC-38 [12])?
Its T/C is 84%.

And the T/C (P388 [13])?
Its T/C is 181%.

What about the T/C (CX-1 [14]) of the same compound?
The T/C was 71%.

And the T/C (P388 [15])?
Its T/C is 163%.

And the T/C (B16 [16])?
Its T/C is 189%.

What about the T/C (P388 [17]) of the same compound?
Its T/C is 140%.

What about the T/C (L1210 [18]) of the same compound?
Its T/C is 112%.

What about the T/C (L1210 [19]) of the same compound?
The T/C was 133%.

What about the T/C (P388 [20]) of the same compound?
Its T/C is 161%.

And the T/C (CX-1 [21])?
Its T/C is 81%.

What about the T/C (MC-38 [22]) of the same compound?
The T/C was 82%.

And the T/C (P388 [23])?
The T/C was 177%.

What about the T/C (B16 [24]) of the same compound?
The T/C was 309%.

And the Activity (Mus musculus)?
Its Activity is “Toxic”.

And the T/C (P388 [25])?
The T/C was 181%.

And the T/C (P388 [26])?
The T/C was 142%.
